Among the test systems are OVCAR-4 ovarian; SK-MEL-28 melanoma; EKVX NSCLC; LOX IMVI melanoma; UO-31 renal; COLO 205 colon; HOP-92 NSCLC.
Holding throughout (assay): inhibition of tumour cell growth, NCI panel, 48 h

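Growth conditions: 96-well plates. Treatment: test compound, 48 hours, 5 concentrations. Analysis: linear interpolation between bracketing concentrations; unreached endpoints set to highest concentration. The concentration for full growth arrest is given as TGI.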

`C=CCN(c1cc(OC)c2[nH]cc(C)c2c1[N+](=O)[O-])S(C)(=O)=O`: the TGI with OVCAR-4 ovarian, in the test on SK-MEL-28 melanoma, in the test on EKVX NSCLC, in the test with LOX IMVI melanoma, in the test with UO-31 renal and with COLO 205 colon was more than 100 µM throughout.
Consider `CCOC(=O)Cn1c(=O)c2cc(-c3ccccc3)cc3c(Cl)nc4c(OC)c(OC)cc1c4c32`, for which the TGI is more than 77.1 µM in the test on OVCAR-4 ovarian; 55.4 µM with SK-MEL-28 melanoma; more than 59.2 µM in the test with EKVX NSCLC; 26.4 µM in the test on LOX IMVI melanoma; 43.8 µM in the test on UO-31 renal; 54.6 µM in the test on HOP-92 NSCLC. The compound further had a TGI in the test on COLO 205 colon of more than 100 µM.
Consider `CC(=O)NC(Cc1ccc(OP(=O)(OCc2ccc([N+](=O)[O-])o2)N(C)CCCCCl)cc1)C(=O)NC(C)c1ccc(OCC2CCCCC2)c(C(N)=O)c1` (stereo not given), for which the TGI in the test with OVCAR-4 ovarian is 11.9 µM; in the test on SK-MEL-28 melanoma, 4.08 µM; with LOX IMVI melanoma it was 3.77 µM; in the test with UO-31 renal, 45.2 µM; with COLO 205 colon it was 3.68 µM.
Consider `CSCCC(NC(=O)OCc1ccccc1)NC(=O)OCc1ccccc1`, for which the TGI in the test with OVCAR-4 ovarian, in the test on SK-MEL-28 melanoma, in the test on LOX IMVI melanoma, with UO-31 renal, in the test with HOP-92 NSCLC and with COLO 205 colon was more than 100 µM in each case.
As to `COC(=O)[C@H](Cc1ccccc1)NP(=O)(O)OCC1C=CC(n2cc(C)c(=O)[nH]c2=O)O1` (stereo not given in full), the TGI in the test with OVCAR-4 ovarian, in the test with EKVX NSCLC, with LOX IMVI melanoma, in the test on UO-31 renal, in the test on HOP-92 NSCLC and with COLO 205 colon was more than 100 µM in each case.
As for `CC(Cc1ccccc1)NC1=NCCO1` (stereo not given), the TGI is more than 100 µM in the test with OVCAR-4 ovarian; more than 100 µM in the test with EKVX NSCLC; 34.9 µM in the test on LOX IMVI melanoma; 50.4 µM in the test with UO-31 renal; 69.1 µM in the test on HOP-92 NSCLC; 34.5 µM in the test with COLO 205 colon.
`CC(NC(C#N)CC12CC3CC(CC(C3)C1)C2)c1ccccc1` (stereo not given): the TGI in the test on SK-MEL-28 melanoma is more than 100 µM; in the test on EKVX NSCLC, more than 100 µM; in the test on LOX IMVI melanoma it was 62.7 µM; with UO-31 renal, more than 100 µM; in the test on HOP-92 NSCLC, 31.5 µM; in the test with COLO 205 colon, more than 100 µM.
Regarding `CC[C@@]12C=CC(=S)N(CCSc3ccccc3)[C@@H]1c1c(n(S(=O)(=O)c3ccc(OC)cc3)c3ccccc13)CC2`, the TGI in the test with SK-MEL-28 melanoma, in the test with EKVX NSCLC, with LOX IMVI melanoma, in the test with UO-31 renal, with HOP-92 NSCLC and in the test on COLO 205 colon was more than 100 µM throughout.
`COc1ccccc1NC(=O)O/N=C(/Cl)C(C)C`: the TGI in the test with SK-MEL-28 melanoma came to 27.8 µM; in the test with EKVX NSCLC it was 29.6 µM; in the test with LOX IMVI melanoma, 6.75 µM; in the test on UO-31 renal, 32.8 µM; in the test with COLO 205 colon, 5.09 µM.
On to `c1ccc(N=C2SC3=NCCN3C2=Nc2ccccc2)cc1`, for which the TGI was 35 µM with SK-MEL-28 melanoma, 26.4 µM in the test with UO-31 renal, 60.6 µM with HOP-92 NSCLC and 33.3 µM with COLO 205 colon.
Take `CCSc1nc(N)c2c(-c3ccccc3)c3c(nc2n1)CCC3`: the TGI in the test on OVCAR-4 ovarian was more than 100 µM; with SK-MEL-28 melanoma, more than 100 µM; in the test with EKVX NSCLC it was more than 100 µM; in the test with LOX IMVI melanoma it was more than 100 µM; in the test on UO-31 renal, 9.02 µM; in the test on COLO 205 colon it was more than 100 µM.
Take `CC(C)OC(=O)[C@@H](O)[C@H](CO)C1=CC([Si](C)(C)c2ccccc2)=CON1`: the TGI in the test with OVCAR-4 ovarian, in the test on SK-MEL-28 melanoma, in the test on EKVX NSCLC, with LOX IMVI melanoma, in the test with UO-31 renal and with COLO 205 colon was more than 100 µM throughout.
For the compound `CC(NC(=O)C(N)CC(=O)O)NC(=O)N(C)C(C)(C)C` (stereo not given), the TGI with OVCAR-4 ovarian, in the test with SK-MEL-28 melanoma, in the test on EKVX NSCLC, with LOX IMVI melanoma, with UO-31 renal and in the test on COLO 205 colon was more than 100 µM each time.
Consider `CC(C)C1CC[C@H](C)C[C@@H]1OC(=O)C(C(=O)O[C@H]1C[C@@H](C)CCC1C(C)C)C(O)[C@@H]1OC(C)(C)O[C@H]1C1COC(C)(C)O1` (stereo not given in full), for which the TGI was 50.9 µM in the test on OVCAR-4 ovarian; 35.4 µM in the test on SK-MEL-28 melanoma; 41.8 µM in the test with EKVX NSCLC; 35.5 µM in the test on LOX IMVI melanoma; 31.3 µM in the test on UO-31 renal; 28.2 µM in the test on COLO 205 colon.
For the compound `CC(=O)/C=C(\O)c1[nH]c(C(=O)O)cc1C1CCN(Cc2ccccc2)C1=O` (stereo not given), the TGI was more than 100 µM with OVCAR-4 ovarian; 43.8 µM in the test on SK-MEL-28 melanoma; 60.6 µM with EKVX NSCLC; 38.5 µM in the test with UO-31 renal; 58.8 µM in the test on HOP-92 NSCLC; 42.9 µM with COLO 205 colon.
For `O=C1c2ccccc2-c2nc(/C=C/c3ccccc3)cc3c2c1nc1ccccc13`, the TGI in the test with OVCAR-4 ovarian is more than 100 µM; with SK-MEL-28 melanoma, 44.6 µM; with EKVX NSCLC, more than 100 µM; in the test on UO-31 renal, more than 100 µM; in the test on HOP-92 NSCLC, more than 100 µM; in the test on COLO 205 colon, 69.8 µM.
Turning to `C(=C\c1cc(-c2ccc3ccccc3n2)nc2ccc3ccccc3c12)/c1ccc2ccccc2n1`, the TGI in the test on OVCAR-4 ovarian, with SK-MEL-28 melanoma, in the test with EKVX NSCLC, in the test with LOX IMVI melanoma, in the test on UO-31 renal and in the test on COLO 205 colon was more than 100 µM each time.
On to `Nn1c(Cc2ccccc2)n[nH]c1=O`, for which the TGI in the test with OVCAR-4 ovarian, in the test on SK-MEL-28 melanoma, with EKVX NSCLC, in the test on LOX IMVI melanoma, in the test on UO-31 renal and with COLO 205 colon was more than 100 µM each time.
On to `Clc1c(C(Cl)(Cl)Cl)nsc1N1CCCCC1`, for which the TGI in the test with OVCAR-4 ovarian was more than 100 µM; in the test with SK-MEL-28 melanoma, more than 100 µM; in the test on EKVX NSCLC, 79.7 µM; in the test with LOX IMVI melanoma it was 32.5 µM; with UO-31 renal it was 44.3 µM; in the test with COLO 205 colon, 30.5 µM.
On to `S=C(Nc1ccccn1)Nc1ccccc1Cl`, for which the TGI is more than 100 µM in the test on OVCAR-4 ovarian; more than 100 µM in the test on SK-MEL-28 melanoma; more than 55.9 µM in the test with EKVX NSCLC; more than 100 µM in the test on LOX IMVI melanoma; more than 100 µM in the test with UO-31 renal; more than 100 µM in the test with COLO 205 colon.
With `CCN(CC)C(=O)N1CN(c2ccccc2)C2(CCN(CCCSc3ccc(F)cc3)CC2)C1=O`, the TGI was more than 100 µM in the test on OVCAR-4 ovarian; 37.1 µM with SK-MEL-28 melanoma; 33.6 µM in the test with EKVX NSCLC; 10.7 µM in the test on LOX IMVI melanoma; 22.6 µM in the test with UO-31 renal.
For the compound `NC(=O)CC(N=C1C(=O)OC(C(O)CO)C1=NC(CC(N)=O)C(=O)O)C(=O)O` (stereo not given), the TGI with OVCAR-4 ovarian, in the test on SK-MEL-28 melanoma, in the test with EKVX NSCLC, in the test on UO-31 renal, in the test on HOP-92 NSCLC and in the test with COLO 205 colon was more than 100 µM each time.
As for `O=C1CCCC2=C1CC1=C(CCCC1=O)N2c1ccccc1`, the TGI in the test on OVCAR-4 ovarian, in the test on SK-MEL-28 melanoma, in the test with EKVX NSCLC, in the test on LOX IMVI melanoma, with UO-31 renal and with HOP-92 NSCLC was more than 100 µM each time.
In the case of `C=C(C)[C@@H]1CCC2=C[C@H](CC(C)=CC3=CC(C)=C(O3)[C@@H]1OC)OC2=O`, the TGI with OVCAR-4 ovarian, with SK-MEL-28 melanoma, in the test on EKVX NSCLC, in the test with UO-31 renal, in the test with HOP-92 NSCLC and in the test on COLO 205 colon was more than 100 µM each time.
For the compound `NC(=O)c1nnsc1NC=O`, the TGI with SK-MEL-28 melanoma, in the test on EKVX NSCLC, in the test on LOX IMVI melanoma, in the test with UO-31 renal, with HOP-92 NSCLC and in the test with COLO 205 colon was more than 100 µM in each case.
For `c1ccc2c(c1)CC1COc3ccccc3C1O2` (stereo not given), the TGI in the test with EKVX NSCLC, in the test on LOX IMVI melanoma, in the test on UO-31 renal, in the test on HOP-92 NSCLC and with COLO 205 colon was more than 100 µM in each case.
As for `Cc1nc2ccccc2n1Cc1nnc(N)o1`, the TGI in the test with SK-MEL-28 melanoma, in the test with EKVX NSCLC, with LOX IMVI melanoma, with UO-31 renal, in the test with HOP-92 NSCLC and with COLO 205 colon was more than 100 µM throughout.
For `NC1CC(=O)c2sccc21` (stereo not given), the TGI in the test with OVCAR-4 ovarian, in the test with SK-MEL-28 melanoma, with EKVX NSCLC, with UO-31 renal, with HOP-92 NSCLC and in the test on COLO 205 colon was more than 100 µM in each case.
For the compound `CSc1nc2c(=O)n(-c3ccccc3)c(=S)n(-c3ccccc3)c2s1`, the TGI with OVCAR-4 ovarian is more than 100 µM; with SK-MEL-28 melanoma, more than 100 µM; in the test on LOX IMVI melanoma, more than 100 µM; with UO-31 renal it was more than 100 µM; in the test with HOP-92 NSCLC, 80.5 µM; with COLO 205 colon, more than 100 µM.
On to `CC(=O)N1c2ccccc2C(C)C1c1[nH]c2ccccc2c1C` (stereo not given), for which the TGI in the test on OVCAR-4 ovarian was more than 100 µM; in the test with SK-MEL-28 melanoma, 49.3 µM; with EKVX NSCLC, more than 100 µM; in the test on LOX IMVI melanoma, more than 100 µM; in the test on UO-31 renal it was 47.6 µM; with COLO 205 colon, 27.9 µM.
Turning to `O=C1C(NCCN2CCOCC2)=C(Cl)C(=O)c2ncccc21`, the TGI in the test on SK-MEL-28 melanoma came to 2.99 µM; with EKVX NSCLC, 2.79 µM; with LOX IMVI melanoma, 0.928 µM; in the test on UO-31 renal, 2.33 µM; with HOP-92 NSCLC, 5.76 µM.

Values taken from PubChem BioAssay (NCI).
